Tests used:
Type in all cases: binding
KRAS WT = biological target: T1, KRAS WT (Homo sapiens, UniProt P01116); assay: HTRF assay of wildtype K-Ras interaction with SOS1 (PPI-HTRF); conditions: HTRF, 5 nM KRAS WT; read-out: PPI-HTRF-5 nM KRAS WT
T1 construct: made in house; host or cells: E. coli, e.g. BL21 (DE3)
Method in brief: (§1)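 HTRF on GST-K-Ras/His-hSOS1 was measured after ≥10 min in pH 7.4 HEPES buffer. IC50 values were derived from the ratiometric emission signal.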

KRAS G12S = biological target: T2, KRAS G12S (Homo sapiens, UniProt P01116, G12S); assay: HTRF assay of K-Ras G12S interaction with SOS1 (PPI-HTRF); conditions: 5 nM KRAS G12S, read-out: PPI-HTRF-5 nM KRAS G12S
T2 construct: made in house; host or cells: E. coli, e.g. BL21 (DE3)
T2 sequence (P01116 1-188 isoform P01116-2 G12S): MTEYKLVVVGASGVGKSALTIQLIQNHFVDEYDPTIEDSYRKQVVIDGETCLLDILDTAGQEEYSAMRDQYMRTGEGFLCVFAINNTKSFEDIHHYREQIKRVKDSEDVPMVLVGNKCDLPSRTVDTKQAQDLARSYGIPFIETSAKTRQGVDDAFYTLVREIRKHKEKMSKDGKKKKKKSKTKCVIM
Method in brief: as §1

KRAS G12D = biological target: T3, KRAS G12D (Homo sapiens, UniProt P01116, G12D); assay: HTRF assay of K-Ras G12D interaction with SOS1 (PPI-HTRF); conditions: HTRF, 5 nM KRAS G12D; read-out: PPI-HTRF-5 nM KRAS G12D
T3 construct: made in house; host or cells: E. coli, e.g. BL21 (DE3)
T3 sequence (P01116 1-188 isoform P01116-2 G12D): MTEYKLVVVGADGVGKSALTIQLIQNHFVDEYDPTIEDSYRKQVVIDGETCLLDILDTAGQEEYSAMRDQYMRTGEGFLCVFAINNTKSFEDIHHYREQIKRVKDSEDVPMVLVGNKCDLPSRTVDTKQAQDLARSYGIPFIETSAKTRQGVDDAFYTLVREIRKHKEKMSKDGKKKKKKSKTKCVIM
Method in brief: as §1

Measured: IC50

T1 sequence (P01116 1-188 isoform P01116-2): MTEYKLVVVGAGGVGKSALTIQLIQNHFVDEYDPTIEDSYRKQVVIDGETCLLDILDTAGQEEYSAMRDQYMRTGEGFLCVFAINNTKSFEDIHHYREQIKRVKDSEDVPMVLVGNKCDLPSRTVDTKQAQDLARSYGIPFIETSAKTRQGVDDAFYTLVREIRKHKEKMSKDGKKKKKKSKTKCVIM

Cc1nc(C)n(C(=O)N2CC[C@@]23CCN(c2nc(OC[C@@]45CCCN4C[C@H](F)C5)nc4c(F)c(-c5ccc(F)c6sc(N)c(C#N)c56)c(Cl)cc24)C3)n1 [Compound 307, 2-amino-4-(6-chloro-4-((R)-1-(3,5-dimethyl-1H-1,2,4-triazole-1-carbonyl)-1,6-diazaspiro[3.4]octan-6-yl)-8-fluoro-2-(((2R,7aS)-2-fluorotetrahydro-1H-pyrrolizin-7a(5H)-yl)methoxy)quinazolin-7-yl)-7-fluorobenzo[b]thiophene-3-carbonitrile]
< 5 µM: all assays above
